# Results reported in ChEMBL document CHEMBL1201862, “PubChem BioAssay data set” (2004).
# The source made the active and inactive calls.
# Experiments:
# cells [1] = type: functional, cell-based
# [2] = biological target: T1, Trace amine-associated receptor 1 (Homo sapiens, UniProt Q96RJ0); test: Fluorescence-based cell-based high throughput dose response assay to identify agonists of the human trace amine associated receptor 1 (TAAR1).; type: functional
# T1 sequence (Q96RJ0 whole entry): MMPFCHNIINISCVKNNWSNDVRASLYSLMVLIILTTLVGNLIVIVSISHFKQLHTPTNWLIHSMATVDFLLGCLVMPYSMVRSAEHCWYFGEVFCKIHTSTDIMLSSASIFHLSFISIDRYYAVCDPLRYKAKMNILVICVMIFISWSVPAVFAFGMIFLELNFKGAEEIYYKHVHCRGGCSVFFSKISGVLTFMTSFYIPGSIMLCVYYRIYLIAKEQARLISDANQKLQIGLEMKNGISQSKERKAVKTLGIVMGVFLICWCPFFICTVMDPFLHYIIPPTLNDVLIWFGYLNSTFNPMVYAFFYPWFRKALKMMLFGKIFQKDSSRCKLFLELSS
# [3] = biological target: T1, Trace amine-associated receptor 1; test: Counterscreen for agonists of the human trace amine associated receptor 1 (hTAAR1): Fluorescence-based cell-based high throughput dose response assay to identify hTAAR1 agonist that also desensitize TAAR1 receptor response.; type: functional
# cells [4] = type: functional, cell-based; remark: listed apart in the source
# [5] = inhibitors of PGC1a acetylation in cells, dose response, cell-based, cherry-picked samples (AID 720514); type: functional;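 further: potency may reflect raised or lowered acetylation signal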
# Caspase-6 = biological target: T2, Caspase-6 (Homo sapiens, UniProt P55212); test: human caspase-6 inhibitors, dose response, biochemical, VEID-R110 fluorescence, cherry-pick (AID 720632)
# T2 sequence (P55212 whole entry): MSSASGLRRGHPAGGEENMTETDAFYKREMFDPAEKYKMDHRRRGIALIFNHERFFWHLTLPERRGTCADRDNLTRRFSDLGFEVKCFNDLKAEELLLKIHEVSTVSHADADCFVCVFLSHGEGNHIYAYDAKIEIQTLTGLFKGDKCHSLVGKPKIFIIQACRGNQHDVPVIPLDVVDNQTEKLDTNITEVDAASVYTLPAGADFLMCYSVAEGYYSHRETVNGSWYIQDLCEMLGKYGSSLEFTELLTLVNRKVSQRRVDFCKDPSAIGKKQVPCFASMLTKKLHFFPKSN
# [6] = HEK293 cell viability, dose response, counter-screen for EBV LMP1 inhibitor project, dry powder, set 2 (AID 624374); type: functional
# [7] = HEp-2 cell cytotoxicity, dose response, cytotoxicity control for RSV inhibitor project, HTS (AID 2410); type: functional; settings: human respiratory syncytial virus
# [8] = A549 cell cytotoxicity, dose response, cytotoxicity control, plate reader, cherry-pick, antagonist series (AID 743412); type: functional, cell-based
# [9] = HepG2 cell cytotoxicity, dose response, cytotoxicity control, plate reader, cherry-pick, antagonist series (AID 743416); type: functional, cell-based
# [10] = LGR2 antagonists, dose response, cell-based, HEK293, CRE-luciferase reporter, cherry pick, set 2 (AID 743343); type: functional;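 further: transfected cells were stimulated with diluted bursicon conditioned medium after compound addition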
# [11] = MC4R antagonists, dose response, counter-screen for LGR2 antagonist project, cell-based, plate reader, cherry pick (AID 743444); type: functional;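 further: transfected HEK 293 cells stimulated with alpha-MSH peptide; potency of inhibitors of the alpha-MSH evoked signal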
# [12] = HEK293 cell cytotoxicity, dose response, cytotoxicity control, plate reader, cherry-picked samples (AID 743446); type: functional, cell-based
# Beta-galactosidase = Beta-galactosidase (Escherichia coli, UniProt Q8VNN2); test: Dose response counterscreen for EBI2 assay utilizing the enzyme, b-galactosidase.; type: functional
# Beta-galactosidase, sequence (Q8VNN2 whole entry): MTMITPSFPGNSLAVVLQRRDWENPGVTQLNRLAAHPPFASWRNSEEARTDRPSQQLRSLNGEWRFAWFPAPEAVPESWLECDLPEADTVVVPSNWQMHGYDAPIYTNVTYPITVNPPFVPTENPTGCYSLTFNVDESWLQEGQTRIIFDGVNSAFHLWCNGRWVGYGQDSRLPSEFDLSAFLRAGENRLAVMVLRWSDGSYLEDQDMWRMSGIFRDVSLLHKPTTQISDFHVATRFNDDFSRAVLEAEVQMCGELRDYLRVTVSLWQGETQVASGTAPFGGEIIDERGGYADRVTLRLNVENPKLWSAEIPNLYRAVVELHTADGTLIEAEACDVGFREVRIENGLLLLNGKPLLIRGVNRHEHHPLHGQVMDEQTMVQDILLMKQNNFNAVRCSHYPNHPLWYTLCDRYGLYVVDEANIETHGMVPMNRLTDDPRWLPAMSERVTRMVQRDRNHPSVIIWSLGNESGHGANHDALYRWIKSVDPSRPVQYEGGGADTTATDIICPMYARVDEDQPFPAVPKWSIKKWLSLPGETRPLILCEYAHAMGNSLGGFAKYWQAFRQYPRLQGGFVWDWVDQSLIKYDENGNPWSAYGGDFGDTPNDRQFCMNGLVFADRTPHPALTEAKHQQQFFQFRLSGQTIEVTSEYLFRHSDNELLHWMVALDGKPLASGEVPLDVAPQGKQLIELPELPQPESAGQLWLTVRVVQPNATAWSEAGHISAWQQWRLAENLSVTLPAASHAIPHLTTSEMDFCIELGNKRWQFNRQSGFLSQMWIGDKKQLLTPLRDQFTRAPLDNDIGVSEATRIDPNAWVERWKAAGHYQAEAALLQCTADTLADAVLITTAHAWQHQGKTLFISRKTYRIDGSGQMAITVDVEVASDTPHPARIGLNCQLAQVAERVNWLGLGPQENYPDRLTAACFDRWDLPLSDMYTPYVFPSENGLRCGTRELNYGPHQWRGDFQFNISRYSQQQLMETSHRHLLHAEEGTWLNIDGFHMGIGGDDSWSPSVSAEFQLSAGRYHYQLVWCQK
# [13] = Cytotoxicity screening for potential Inhibitors of Bacterial Capsule Biogenesis (4).; type: functional
# [14] = P. falciparum Dd2 growth inhibitors, dose response, SYBR Green, cherry-picked samples (AID 1159567); type: functional, cell-based
# [15] = HepG2 cell cytotoxicity, dose response, cytotoxicity control, cherry-picked samples (AID 1159577); type: functional, cell-based
# [16] = biological target: T3, Heat shock factor protein 1 (Mus musculus, UniProt P38532); test: HSF1 potentiators in luciferase reporter cells, confirmation, cell-based, NIH3T3, luminescence, dose retest (AID 435004); type: functional;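 further: stress induced by proteasome inhibitor MG132 added 30 min after compound; luciferase reporter driven by HSF1 response element in NIH3T3 cells; actives raise luminescence as potentiators of the MG132 stress response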
# T3 sequence (P38532 whole entry): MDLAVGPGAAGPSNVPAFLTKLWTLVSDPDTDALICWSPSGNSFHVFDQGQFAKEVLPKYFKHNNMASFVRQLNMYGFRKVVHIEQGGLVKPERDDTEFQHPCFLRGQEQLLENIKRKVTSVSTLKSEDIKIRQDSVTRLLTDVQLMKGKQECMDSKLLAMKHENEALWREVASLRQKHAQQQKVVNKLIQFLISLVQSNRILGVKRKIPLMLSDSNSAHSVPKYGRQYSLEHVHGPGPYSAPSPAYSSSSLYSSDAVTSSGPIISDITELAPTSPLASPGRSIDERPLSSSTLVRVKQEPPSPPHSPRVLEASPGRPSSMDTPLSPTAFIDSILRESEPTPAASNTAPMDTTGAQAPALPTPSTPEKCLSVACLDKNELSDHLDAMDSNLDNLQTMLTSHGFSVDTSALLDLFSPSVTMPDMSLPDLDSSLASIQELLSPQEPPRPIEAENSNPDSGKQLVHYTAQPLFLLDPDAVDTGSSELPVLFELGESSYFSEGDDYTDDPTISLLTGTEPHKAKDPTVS
# Vero = test: cells; type: functional; settings: Chlorocebus sabaeus
compound,measurement,setting,value
Cc1cc2c(cc1S(=O)(=O)CCC(=O)NCCc1ccccc1)OCC(=O)N2,IC50,cells [1],> 29.9 µM (inactive)
same,EC50,[2],3.59 µM (active)
same,IC50,[3],5.78 µM (active)
same,EC50,cells [4],> 29.9 µM (inactive)
CC(=O)N1CCN(S(=O)(=O)c2cccc(C(=O)Nc3ccc4c(c3)OCO4)c2)CC1,AC50,[5],25.1 µM (active)
CCOC(=O)[C@H](Cc1c[nH]c2ccccc12)NC(=O)CN=[N+]=[N-],AC50,Caspase-6,6.78 µM (active)
CO[C@@H]1CN(C)C(=O)c2ccc(NC(C)=O)cc2OC[C@@H](C)N(Cc2ccccc2F)C[C@H]1C,AbsAC35,[6],167.32 µM
O=C(C[C@@H]1CC[C@@H]2[C@H](COC[C@@H](O)CN2Cc2ccc(Oc3ccccc3)cc2)O1)N1CCc2ccccc2C1,AbsAC35,[6],79.64 µM
CCC(=O)Nc1cccc(-c2ccc(N3CCC(C)CC3)nn2)c1,CC50,[7],26.9 µM (active)
same,AC50,[8],> 52 µM (inactive)
same,AC50,[9],> 52 µM (inactive)
same,AC50,[10],6.78 µM (active)
same,AC50,[11],10.3 µM (active)
same,AC50,[12],35.7 µM (active)
COc1ccc(-n2nnnc2C(c2ccccc2OC(F)(F)F)N2CCN(C/C=C/c3ccccc3)CC2)cc1 (stereo unspecified),IC50,Beta-galactosidase,> 80 µM (inactive)
Cc1cc(NC(=O)c2ccc3nc(NC(=O)OC(C)(C)C)sc3c2)ccn1,CC50,[13],96.8 µM (active)
C/C=C/c1ccc([C@H]2[C@H](CO)N(c3nc(CC)cs3)[C@H]2CNC(C)C)cc1,AC50,[14],0.829 µM (active)
same,AC50,[15],20 µM (active)
O=[N+]([O-])c1ccc(/C=[N+](\[O-])[C@@H]2CCCC[C@@H]2/[N+]([O-])=C/c2ccc([N+](=O)[O-])o2)o1,EC50,[16],8.46 µM (active)
same,CC50,Vero,14.8 µM (active)
same,AC50,Caspase-6,41.1 µM (active)
N#C[C@@H]1[C@H](c2ccc(C#Cc3ccccc3F)cc2)[C@@H](CO)N1C(=O)c1cccnc1,AbsAC35,[6],93.82 µM
Cc1ccc(C)c(N2CN(CCC3=CCCCC3)CN=C2S)c1,IC50,cells [1],> 29.9 µM (inactive)
same,EC50,[2],4.03 µM (active)
same,IC50,[3],7.73 µM (active)
same,EC50,cells [4],> 29.9 µM (inactive)
